In BindingDB's records for doi:10.1016/j.ejmech.2021.113474 (Yanbian University, 2021):

Target: Hypoxia-inducible factor 1-alpha (Homo sapiens, UniProt Q16665)
Test: Inhibition of hypoxia-induced HIF1alpha transcriptional activity in human Hep3B cells co-transfected with luciferase reporter plasmid containing six copies of HREs and pRL-CMV vector assessed as reduction in luciferase activity incubated for 24 hrs under hypoxic condition by HRE-dependent dual luciferase reporter gene assay

Hypoxia-inducible factor 1-alpha, sequence (Q16665 whole entry): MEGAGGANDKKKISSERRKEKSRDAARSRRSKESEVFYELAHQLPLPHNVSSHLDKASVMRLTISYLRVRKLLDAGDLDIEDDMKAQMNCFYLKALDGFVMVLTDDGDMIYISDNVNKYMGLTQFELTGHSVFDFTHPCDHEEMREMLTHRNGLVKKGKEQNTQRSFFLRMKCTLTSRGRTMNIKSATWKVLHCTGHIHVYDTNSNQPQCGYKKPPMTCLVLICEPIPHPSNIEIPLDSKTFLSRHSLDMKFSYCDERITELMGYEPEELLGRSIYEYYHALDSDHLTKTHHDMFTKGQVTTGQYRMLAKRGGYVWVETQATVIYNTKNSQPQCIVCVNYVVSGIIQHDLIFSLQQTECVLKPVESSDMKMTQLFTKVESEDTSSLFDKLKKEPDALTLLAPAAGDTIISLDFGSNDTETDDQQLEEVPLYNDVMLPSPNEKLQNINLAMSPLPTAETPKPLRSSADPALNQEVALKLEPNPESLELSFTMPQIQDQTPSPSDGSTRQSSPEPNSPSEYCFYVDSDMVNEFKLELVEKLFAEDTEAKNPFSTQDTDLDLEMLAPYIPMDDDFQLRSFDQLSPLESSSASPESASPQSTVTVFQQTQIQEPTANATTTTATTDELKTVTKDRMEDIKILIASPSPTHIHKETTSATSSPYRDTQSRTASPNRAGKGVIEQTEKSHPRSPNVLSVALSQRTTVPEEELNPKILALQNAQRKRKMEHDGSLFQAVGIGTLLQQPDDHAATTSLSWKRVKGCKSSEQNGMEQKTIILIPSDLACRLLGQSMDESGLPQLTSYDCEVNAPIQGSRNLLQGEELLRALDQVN

Molecule `CC1=C(O)C(=O)C=C2C1=CC=C1[C@@]2(C)CC[C@@]2(C)[C@@H]3C[C@](C)(C(=O)OCC(=O)Nc4ccnc5ccccc45)CC[C@]3(C)CC[C@]12C` has an IC50 of 0.49 µM.

With `CC1=C(O)C(=O)C=C2C1=CC=C1[C@@]2(C)CC[C@@]2(C)[C@@H]3C[C@](C)(C(=O)OCCOc4ccc5ccc(=O)oc5c4)CC[C@]3(C)CC[C@]12C` the IC50 was 0.08 µM.

Molecule `CC1=C(O)C(=O)C=C2C1=CC=C1[C@@]2(C)CC[C@@]2(C)[C@@H]3C[C@](C)(C(=O)OCC(=O)Nc4cnc5ccccc5c4)CC[C@]3(C)CC[C@]12C` has an IC50 of 0.09 µM.

Work on `CCOP(=O)(OCC)C(NC(=O)COC(=O)[C@]1(C)CC[C@]2(C)CC[C@]3(C)C4=CC=C5C(=CC(=O)C(O)=C5C)[C@]4(C)CC[C@@]3(C)[C@@H]2C1)c1ccc(F)cc1` (stereo not given in full) yielded an IC50 of over 30 µM.

`CC1=C(O)C(=O)C=C2C1=CC=C1[C@@]2(C)CC[C@@]2(C)[C@@H]3C[C@](C)(C(=O)OCC(=O)Nc4ccc(F)cn4)CC[C@]3(C)CC[C@]12C` showed an IC50 of 0.25 µM.

Work on `CC1=C(O)C(=O)C=C2C1=CC=C1[C@@]2(C)CC[C@@]2(C)[C@@H]3C[C@](C)(C(=O)OCC(=O)Nc4ccc(F)nc4)CC[C@]3(C)CC[C@]12C` yielded an IC50 of 0.16 µM.

Molecule `CC1=C(O)C(=O)C=C2C1=CC=C1[C@@]2(C)CC[C@@]2(C)[C@@H]3C[C@](C)(C(=O)OCC(=O)Nc4ccc5ncccc5c4)CC[C@]3(C)CC[C@]12C` has an IC50 of 0.24 µM.

In the case of `CC1=C(O)C(=O)C=C2C1=CC=C1[C@@]2(C)CC[C@@]2(C)[C@@H]3C[C@](C)(C(=O)OCC(=O)Nc4cccc5cccnc45)CC[C@]3(C)CC[C@]12C`, the IC50 is reported as 0.35 µM.

For `CCOP(=O)(OCC)C(NC(=O)COC(=O)[C@]1(C)CC[C@]2(C)CC[C@]3(C)C4=CC=C5C(=CC(=O)C(O)=C5C)[C@]4(C)CC[C@@]3(C)[C@@H]2C1)c1ccc(OC)cc1` (stereo not given in full), the IC50 was 0.16 µM.

Molecule `CC1=C(O)C(=O)C=C2C1=CC=C1[C@@]2(C)CC[C@@]2(C)[C@@H]3C[C@](C)(C(=O)OCCOc4cc(=O)oc5ccccc45)CC[C@]3(C)CC[C@]12C` has an IC50 of 0.15 µM.

Molecule `CC1=C(O)C(=O)C=C2C1=CC=C1[C@@]2(C)CC[C@@]2(C)[C@@H]3C[C@](C)(C(=O)OCC(=O)Nc4cccc5ncccc45)CC[C@]3(C)CC[C@]12C` has an IC50 of 0.36 µM.

In the case of `CC1=C(O)C(=O)C=C2C1=CC=C1[C@@]2(C)CC[C@@]2(C)[C@@H]3C[C@](C)(C(=O)OCC(=O)Nc4cc(C)on4)CC[C@]3(C)CC[C@]12C`, the IC50 is reported as 0.07 µM.

In the case of `C=c1c(O)c(O)cc2c1=CC=C1[C@@]2(C)CC[C@@]2(C)[C@@H]3C[C@](C)(C(=O)O)CC[C@]3(C)CC[C@]12C`, the IC50 is reported as 0.25 µM.

Molecule `CC1=C(O)C(=O)C=C2C1=CC=C1[C@@]2(C)CC[C@@]2(C)[C@@H]3C[C@](C)(C(=O)OCC(=O)NCc4cn(-c5ccc(Cl)c(Cl)c5)nn4)CC[C@]3(C)CC[C@]12C` has an IC50 of 0.12 µM.

`CC1=C(O)C(=O)C=C2C1=CC=C1[C@@]2(C)CC[C@@]2(C)[C@@H]3C[C@](C)(C(=O)OCC(=O)NCc4cn(-c5ccccc5)nn4)CC[C@]3(C)CC[C@]12C` gave an IC50 of 0.6 µM.

`CC1=C(O)C(=O)C=C2C1=CC=C1[C@@]2(C)CC[C@@]2(C)[C@@H]3C[C@](C)(C(=O)OCC(=O)NCc4cn(-c5ccc(C)cc5)nn4)CC[C@]3(C)CC[C@]12C` gave an IC50 of over 30 µM.

With `CC1=C(O)C(=O)C=C2C1=CC=C1[C@@]2(C)CC[C@@]2(C)[C@@H]3C[C@](C)(C(=O)OCC(=O)Nc4ccncc4)CC[C@]3(C)CC[C@]12C` the IC50 was 32 µM.

In the case of `CC1=C(O)C(=O)C=C2C1=CC=C1[C@@]2(C)CC[C@@]2(C)[C@@H]3C[C@](C)(C(=O)OCCOc4cccc5ncccc45)CC[C@]3(C)CC[C@]12C`, the IC50 is reported as over 30 µM.

For `CC1=C(O)C(=O)C=C2C1=CC=C1[C@@]2(C)CC[C@@]2(C)[C@@H]3C[C@](C)(C(=O)OCCOc4ccc5cccnc5c4)CC[C@]3(C)CC[C@]12C`, the IC50 was 0.17 µM.

`CC1=C(O)C(=O)C=C2C1=CC=C1[C@@]2(C)CC[C@@]2(C)[C@@H]3C[C@](C)(C(=O)OCCOc4cnc5ccccc5c4)CC[C@]3(C)CC[C@]12C` was tested, and the IC50 was 0.05 µM.

`CC1=C(O)C(=O)C=C2C1=CC=C1[C@@]2(C)CC[C@@]2(C)[C@@H]3C[C@](C)(C(=O)OCCOc4cc(C)oc(=O)c4)CC[C@]3(C)CC[C@]12C` gave an IC50 of 0.15 µM.

`CC1=C(O)C(=O)C=C2C1=CC=C1[C@@]2(C)CC[C@@]2(C)[C@@H]3C[C@](C)(C(=O)OCC(=O)NCc4cn(-c5ccc(Cl)cc5)nn4)CC[C@]3(C)CC[C@]12C` gave an IC50 of over 30 µM.

For `COc1ccc(-n2cc(CNC(=O)COC(=O)[C@]3(C)CC[C@]4(C)CC[C@]5(C)C6=CC=C7C(=CC(=O)C(O)=C7C)[C@]6(C)CC[C@@]5(C)[C@@H]4C3)nn2)cc1`, the IC50 was over 30 µM.

`CCOP(=O)(OCC)C(NC(=O)COC(=O)[C@]1(C)CC[C@]2(C)CC[C@]3(C)C4=CC=C5C(=CC(=O)C(O)=C5C)[C@]4(C)CC[C@@]3(C)[C@@H]2C1)c1ccc(C)cc1` (stereo not given in full) was tested, and the IC50 was over 30 µM.

`CCOP(=O)(OCC)C(NC(=O)COC(=O)[C@]1(C)CC[C@]2(C)CC[C@]3(C)C4=CC=C5C(=CC(=O)C(O)=C5C)[C@]4(C)CC[C@@]3(C)[C@@H]2C1)c1ccccc1` (stereo not given in full) gave an IC50 of 0.24 µM.
